Structures can show the parent of a compound that is named as a salt.
target: T1, Histamine Receptor H3 (Homo sapiens, UniProt Q9Y5N1); experiment: Cyclic AMP assay for histamine receptor H3 antagonism activity; format: cell-based; details: stable H3 cells; histamine plus 10 μM forskolin; 30 min at 30° C.; read-out: cAMP Kb
T1 construct: expressed in transfected cells
Procedure: Cyclic AMP Assay for Histamine Receptor H3 Antagonism Activity.
Stable H3 cells are maintained in tissue culture flask in DMEM with high glucose, 10% FBS, 1× pen/strep, 500 ug/ml GY18, until experiment. Culture media is removed and cells are washed twice with PBS w/ Ca++ and Mg++ plus 500 μM IBMX. Cells are then detached by tapping on the side of the flask and resuspend in the same buffer. Two thousand cells/well are incubated with […] histamine plus 10 μM forskolin plus various concentrations of compounds in a total volume of 30 μL in 96 well plates for 30 min at 30° C. Final test compound concentrations range from 10^-4M to 10-9.5M at full log dilutions. Cyclic AMP levels are measured using HitHunter cAMP kit from Discoverx, cat# 900041 according to manufacturer's instruction. Chemiluminescence signals are detected using Top Count (Packard). Cyclic AMP levels in control cells receiving 10 μM forskolin plus 100 nM histamine are considered 0%, and in cells receiving 10 uM forskolin plus 100 nM histamine plus 1 μM clobenpropit are considered 100%. Data are expressed as % control and analyzed using Prizm soft ware. The Kb values are calculated using the following equation, KB=EC50 or IC50/[1+(ligand/Kd)].

T1 sequence (Q9Y5N1 whole entry): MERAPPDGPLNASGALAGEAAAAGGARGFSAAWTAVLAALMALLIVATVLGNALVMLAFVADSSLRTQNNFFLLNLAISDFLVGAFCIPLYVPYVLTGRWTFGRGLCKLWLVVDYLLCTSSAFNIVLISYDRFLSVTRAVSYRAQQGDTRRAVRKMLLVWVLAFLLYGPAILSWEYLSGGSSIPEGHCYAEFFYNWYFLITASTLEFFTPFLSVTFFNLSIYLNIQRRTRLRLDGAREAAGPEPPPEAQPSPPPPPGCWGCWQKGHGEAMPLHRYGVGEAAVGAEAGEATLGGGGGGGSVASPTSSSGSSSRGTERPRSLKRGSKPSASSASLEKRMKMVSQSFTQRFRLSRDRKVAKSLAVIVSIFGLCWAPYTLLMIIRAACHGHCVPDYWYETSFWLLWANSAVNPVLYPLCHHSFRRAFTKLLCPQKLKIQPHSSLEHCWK

| SMILES | Kb [nM] |
| --- | --- |
| Cc1csc2c(Nc3ccc(C(=O)N4CCC(N(C)C)C4)cc3)ncnc12 (stereo not drawn) [Example 7, N-(4-{[3-(dimethylamino)pyrrolidin-1-yl]carbonyl}phenyl)-7-methylthieno[3,2-d]pyrimidin-4-amine] | 14 |
| CN(C)C1CCN(C(=O)c2ccc(NC(=O)c3ccc4ccccc4n3)cc2)C1 (stereo not drawn) [Example 17, N-(4-{[3-(dimethylamino)pyrrolidin-1-yl]carbonyl}phenyl)quino-line-2-carboxamide] | 57 |

system: not given; experiment: not given; details: not given

| SMILES | melting point [°C] |
| --- | --- |
| Cc1ccc(Oc2ccc(C(=O)N3CC[C@H](N4CCCC4)C3)cc2)cc1 (as salt: hydrochloride) [Example 35, (3′S)-1′-[4-(4-methylphenoxy)benzoyl]-1,3′-bipyrrolidine] | 98 to 100 |
| COc1cccc(Oc2ccc(C(=O)N3CC[C@H](N4CCCC4)C3)cc2)c1 (as salt: hydrochloride) [Example 36, (3′S)-1′-[4-(3-methoxyphenoxy)benzoyl]-1,3′-bipyrrolidine] | 82 to 84 |
| Cc1cc(Cl)ccc1Oc1ccc(C(=O)N2CC[C@H](N3CCCC3)C2)cc1 (as salt: hydrochloride) [Example 39, (3′S)-1′-[4-(4-chloro-2-methylphenoxy)benzoyl]-1,3′-bipyrrolidine] | 123 to 125 |
| Cc1ccc(Oc2ccc(C(=O)N3CC[C@H](N4CCCC4)C3)cc2)c(Cl)c1 (as salt: hydrochloride) [Example 40, (3′S)-1′-[4-(2-chloro-4-methylphenoxy)benzoyl]-1,3′-bipyrrolidine] | 124 to 126 |
